From US20170035049A1, “BIOCIDAL PRODUCTS” (SALVECO, priority 2014, published 2017)

Assay: Ultimate aerobic biodegradability in aqueous medium (OECD 301 A)
Details: on the fourteenth day
Experimental: This test is an evaluation in an aqueous medium of the ultimate aerobic biodegradability of a sample of the concentrated formulation according to the invention. This test is performed according to the provisions of the OECD 301 A method using a sample containing a dissolved organic carbon content of 10 mg/l (DOC for dissolved organic carbon). The evolution of the disappearance of dissolved organic carbon is followed during a period of 28 days in the “Concentrated disinfection” test at 10 mg/l of DOC. The physical-chemical analysis is performed according to the ASTM […] standard. The attached FIG. 1 represents the resulting curves of degradation of the organic carbon dissolved after 28 days. The reference substance corresponds to sodium acetate.

Structure (SMILES): CC(=O)[O-].[Na+] [sodium acetate]
- percentage of degradation of the reference substance: 99%
